The record followed here is ChEMBL document CHEMBL2321741, “Discovery and optimization of potent broad-spectrum arenavirus inhibitors derived from benzimidazole” (Bioorg Med Chem Lett, 2013).

Test [1] has as its system Lassa virus. Kind of test: Antiviral activity against Lassa virus pseudovirions infected in HEK293T/17 cells after 72 hrs by luciferase reporter gene assay. In kind it is functional, organism-based. The settings on record: Mammarenavirus lassaense, HEK-293T. (A reporter such as luciferase makes a cellular process visible.)
Another test concerns Guanarito virus. Kind of test: Antiviral activity against Guanarito virus pseudovirions infected in HEK293T/17 cells after 72 hrs by luciferase reporter gene assay. In kind it is functional, cell-based. The settings on record: Mammarenavirus guanaritoense, HEK-293T.
The test system of another test is Machupo mammarenavirus. Kind of test: Antiviral activity against Machupo virus pseudovirions infected in HEK293T/17 cells after 72 hrs by luciferase reporter gene assay. In kind it is functional, cell-based. The settings on record: Mammarenavirus machupoense, HEK-293T.
In test [2] the test system is Lassa virus. Kind of test: Antiviral activity against Lassa virus infected in guinea pig strain 13 assessed as host survival rate at 25 mg/kg/day, ip administered at 1 hr prior to infection for 14 days relative to control. The class given is functional, Mammarenavirus lassaense. The note with it: route intraperitoneal.
In test [3] the test system is Lassa virus. Put plainly: Antiviral activity against Lassa virus infected in guinea pig strain 13 assessed as reduction in viral titre in plasma at 25 mg/kg/day, ip administered at 1 hr prior to infection for 14 days relative to control. The class given is functional, Mammarenavirus lassaense. The settings on record: route intraperitoneal.
In the next test the test system is Sabia virus. Put plainly: Antiviral activity against Sabia virus pseudovirions infected in HEK293T/17 cells after 72 hrs by luciferase reporter gene assay. The class given is functional, cell-based. The note with it: HEK-293T.
In the next test the test system is Junin virus. Kind of test: Antiviral activity against Junin virus pseudovirions infected in HEK293T/17 cells after 72 hrs by luciferase reporter gene assay. The class given is functional, organism-based. The note with it: Mammarenavirus juninense, HEK-293T.
Test [4] relates to Lassa virus. Kind of test: Antiviral activity against Lassa virus infected in guinea pig strain 13 assessed as host survival rate at 80 mg/kg/day, ip administered at 1 hr prior to infection for 14 days relative to control. The class given is functional, Mammarenavirus lassaense. The settings on record: route intraperitoneal.
In test [5] the test system is Lassa virus. Kind of test: Antiviral activity against Lassa virus pseudovirions infected in HEK293T/17 cells at 50 uM after 72 hrs by luciferase reporter gene assay. The class given is functional, organism-based. The note with it: Mammarenavirus lassaense, HEK-293T.

Molecules are shown by their SMILES. The source made the active and inactive calls. The calls are words filed in the database; no cut-off is given here. Where only a bound is given, the exact number is not on record here.

The compound `COc1ccc(-n2cnc3cc(NCc4ccccc4O)ccc32)cc1` came in with an EC50 in the test on Lassa virus [1] of 310 nM. In other words, the sub-micromolar range.
The same measure, in the same setting: then `CCCCc1ccc(-n2cnc3cc(NCc4ccc(C(C)C)cc4)ccc32)cc1`, with 4.4 nM.
In the case of `COc1ccc(-n2cnc3cc(NC(=O)c4ccc(C)cc4)ccc32)cc1`, the EC50 with Lassa virus [1] was more than 50000 nM.
With `COc1ccc(-n2cnc3cc(NCc4ccc(OC(C)(C)C)cc4)ccc32)cc1`, the midpoint of the response in the test on Lassa virus [1], the EC50, lay at 5.2 nM.
Same read-out and setting: the figure for `CC(C)c1ccc(CNc2ccc3ncn(-c4ccc(OC(C)(C)C)cc4)c3c2)cc1` is 180 nM.
On to `COc1ccc(-n2cnc3cc(NCc4ccc(C(C)C)cc4)ccc32)cc1`, for which the 50% effective concentration (EC50) with Guanarito virus worked out at 0.44 nM; in the test on Lassa virus [1] it was 1.4 nM; with Machupo mammarenavirus it was 3.1 nM; in the test on Sabia virus it was 21 nM; with Junin virus it was 0.62 nM. For the same compound, the Activity in the test with Lassa virus [2] is given as 63%. For the same compound, the “fold change (FC)” value in the test with Lassa virus [3] stood at 2.
`CC(C)c1ccc(CNc2ccc3c(c2)ncn3-c2ccc(Oc3ccc4ccccc4c3)cc2)cc1` returned an EC50 with Lassa virus [1] of 540 nM.
Still for that read-out and setting: then `CCCCOc1ccc(CNc2ccc3c(c2)ncn3-c2ccc(OC)cc2)cc1`, with 6 nM; and `COc1ccc(-n2cnc3cc(NCc4ccco4)ccc32)cc1`, with 1200 nM.
Consider `NC(=O)c1ncn([C@@H]2O[C@H](CO)[C@@H](O)[C@H]2O)n1` [RIBAVIRIN], for which the Activity with Lassa virus [4] was found to be 0%.
With `COc1ccc(-n2cnc3cc(NCc4cccc5ccccc45)ccc32)cc1`, the EC50 in the test on Lassa virus [1] is 69 nM. In other words, the double-digit nanomolar range.
On the same count and under the same terms, the figure for `CCOc1ccc(-n2cnc3cc(NCc4ccc(C)nc4)ccc32)cc1` is 240 nM; for `CCCCOc1ccc(-n2cnc3cc(NCc4ccc(C(C)C)cc4)ccc32)cc1` it is 5.6 nM; for `CCOc1ccc(-n2cnc3cc(NCc4ccc(C)cn4)ccc32)cc1` it is 350 nM.
As to `CCCNc1ccc2c(c1)ncn2-c1ccc(OC)cc1`, the result in the test on Lassa virus [5] was inactive.
Take `CCc1ccc(CNc2ccc3c(c2)ncn3-c2ccc(OC)nn2)cc1`: a half-maximal effect with Lassa virus [1] (EC50) was put at 81 nM. This lies in the double-digit nanomolar range.
On the same count and under the same terms, then `COc1ccc(-n2cnc3cc(NCc4ccc(Cc5ccccc5)cc4)ccc32)cc1`, with 46 nM; and `CC(C)c1ccc(CNc2ccc3c(c2)ncn3-c2ccc(Oc3ccccc3)cc2)cc1`, with 130 nM; and `CCCCc1ccc(CNc2ccc3c(c2)ncn3-c2ccc(OC)cc2)cc1`, with 1.5 nM.
Still for that read-out and setting: the figure for `COc1ccc(-n2cnc3cc(NCc4ccc(OC)c(OC)c4)ccc32)cc1` is 700 nM.
Still for that read-out and setting: the figure for `COc1ccc(-n2cnc3cc(NCc4ccc(Oc5ccccc5)cc4)ccc32)cc1` is 380 nM.
Regarding `CNc1ccc2c(c1)ncn2-c1ccc(OC)cc1`, the outcome with Lassa virus [5] was inactive.
In the test with Lassa virus [1], `Cc1ccc(CNc2ccc3c(c2)ncn3C2CCCCC2)cc1` displayed an EC50 of 320 nM.
`CC(C)c1ccc(CNc2ccc3c(c2)ncn3-c2ccc(OCCc3ccccc3)cc2)cc1` gave an EC50 with Lassa virus [1] of 43 nM.
The same measure, in the same setting: then `CCc1ccc(CNc2ccc3c(c2)ncn3-c2ccc(OC)cn2)cc1`, with 5.8 nM.
Still for that read-out and setting: then `CCOc1ccc(-n2cnc3cc(NCc4ccc(CC(=O)O)cc4)ccc32)cc1`, with 1300 nM.
On to `COc1ccc(-n2cnc3cc(N(Cc4ccc(C(C)C)cc4)S(=O)(=O)c4ccc(C)cc4)ccc32)cc1`, for which the EC50 in the test on Lassa virus [1] worked out at 110 nM; with Machupo mammarenavirus, 40 nM; in the test on Sabia virus it was 510 nM; in the test with Junin virus, 16 nM.
For `CCOc1ccc(-n2cnc3cc(CNc4ccc(CC)cc4)ccc32)cc1` the same measures were 11 nM, 12 nM, 43 nM and 5 nM.
Compound `COc1ccc(-n2cnc3cc(NCc4ccccc4OC)ccc32)cc1` came in with an EC50 with Lassa virus [1] of 460 nM.
The same measure, in the same setting: then `CCc1ccc(-n2cnc3cc(NCc4ccc(C(C)C)cc4)ccc32)cc1`, with 1.9 nM; and `COc1ccc(-n2cnc3cc(N(Cc4ccc(C(C)C)cc4)C(C)=O)ccc32)cc1`, with 380 nM; and `CC(C)c1ccc(CNc2ccc3c(c2)ncn3-c2ccccc2)cc1`, with 5.2 nM.
Still for that read-out and setting: the figure for `CCc1ccc(CNc2ccc3c(c2)ncn3-c2cnc(OC)nc2)cc1` is 450 nM.
Still for that read-out and setting: the figure for `COc1ccc(-n2cnc3cc(NCc4ccc(CN(C)C)cc4)ccc32)cc1` is 270 nM.
Turning to `COc1ccc(-n2cnc3cc(N(C)Cc4ccc(C(C)C)cc4)ccc32)cc1`, in the test with Lassa virus [1], the EC50 is 57 nM.
The same measure, in the same setting: the figure for `COc1ccc(-n2cnc3cc(NCc4ccc(C(C)(C)C)cc4)ccc32)cc1` is 1.1 nM; for `CC(C)c1ccc(CNc2ccc3c(c2)ncn3-c2ccc(OC(C)(C)C)cc2)cc1` it is 8.6 nM.
The same measure, in the same setting: the figure for `COc1ccc(-n2cnc3cc(NCc4ccc(Cl)cc4)ccc32)cc1` is 47 nM; for `CCc1ccc(CNc2ccc3c(c2)ncn3-c2ccc(OC)nc2)cc1` it is 32 nM.
`CC(C)c1ccc(CNc2ccc3c(c2)ncn3-c2ccc(Cc3ccccc3)cc2)cc1` yielded an EC50 with Lassa virus [1] of 120 nM.
The same measure, in the same setting: the figure for `COc1ccc(-n2cnc3cc(NCc4cccc(OC)c4OC)ccc32)cc1` is 160 nM; for `COc1ccc(-n2cnc3cc(NCc4cccc(OC)c4)ccc32)cc1` it is 35 nM.
The same measure, in the same setting: then `COc1ccc(-n2cnc3cc(NCc4ccc(OCCN(C)C)cc4)ccc32)cc1`, with 3300 nM.
As to `COc1ccc(-n2cnc3cc(NCc4ccc(CN5CCN(C)CC5)cc4)ccc32)cc1`, in the test on Lassa virus [1], it took 16000 nM to reach a half-maximal effect (EC50).
For `COc1ccc(-n2cnc3cc(NCc4ccc(CN5CCCCC5)cc4)ccc32)cc1`, in the test on Lassa virus [1], the EC50 stood at 1400 nM.
Compound `CC(C)c1ccc(CNc2ccc3c(c2)ncn3-c2ccc(C(C)(C)C)cc2)cc1` displayed an EC50 in the test on Lassa virus [1] of 4 nM.
The same measure, in the same setting: then `CCc1ccc(CNc2ccc3c(c2)ncn3-c2ccc(OC)cc2)cc1`, with 1.2 nM; and `CCOc1ccc(-n2cnc3cc(NCc4cnc(CC)nc4)ccc32)cc1`, with 450 nM.
Still for that read-out and setting: the figure for `CCOc1ccc(CNc2ccc3c(c2)ncn3-c2ccc(OC)cc2)cc1` is 4 nM.
On the same count and under the same terms, then `COc1ccc(-n2cnc3cc(NCc4ccc(CN5CCOCC5)cc4)ccc32)cc1`, with 790 nM.
As to `COc1ccc(CNc2ccc3c(c2)ncn3-c2ccc(OC)cc2)cc1`, the EC50 in the test on Guanarito virus stood at 5.6 nM; in the test with Lassa virus [1], 11 nM; in the test with Machupo mammarenavirus, 45 nM; with Sabia virus, 110 nM; in the test on Junin virus, 7.7 nM.

As usually defined, the EC50 is the concentration at which the effect is half-maximal. Low readings indicate a more potent agent, high ones a less potent agent.
